According to PubChem BioAssay (NCI):
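Abbreviation: GI50, concentration required for 50% inhibition of growth. At the TGI there is no net growth.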

Assays:
Test in all cases: DTP human tumour cell line panel, 384-well format
U251 glioblastoma = system: U251 glioblastoma
HT29 colon = system: HT29 colon
HCC-2998 colon = system: HCC-2998 colon
ACHN renal = system: ACHN renal
HS 578T breast = system: HS 578T breast
M14 melanoma = system: M14 melanoma
SF-539 CNS = system: SF-539 CNS
TK-10 renal = system: TK-10 renal
SK-MEL-28 melanoma = system: SK-MEL-28 melanoma
786-0 renal = system: 786-0 renal
DU-145 prostate = system: DU-145 prostate
NCI/ADR-RES ovarian = system: NCI/ADR-RES ovarian
A498 renal = system: A498 renal
CCRF-CEM leukemia = system: CCRF-CEM leukemia
IGROV1 ovarian = system: IGROV1 ovarian
BT-549 breast = system: BT-549 breast
PC-3 prostate = system: PC-3 prostate
NCI-H23 lung = system: NCI-H23 lung
MCF7 breast = system: MCF7 breast
OVCAR-5 ovarian = system: OVCAR-5 ovarian
T-47D breast = system: T-47D breast
HCT-116 colon = system: HCT-116 colon
LOX IMVI melanoma = system: LOX IMVI melanoma
OVCAR-4 ovarian = system: OVCAR-4 ovarian
MOLT-4 leukemia = system: MOLT-4 leukemia
RXF 393 renal = system: RXF 393 renal
HL-60(TB) leukemia = system: HL-60(TB) leukemia
SF-268 CNS = system: SF-268 CNS
SF-295 CNS = system: SF-295 CNS
NCI-H226 lung = system: NCI-H226 lung
NCI-H522 lung = system: NCI-H522 lung
HOP-62 NSCLC = system: HOP-62 NSCLC
KM12 colon = system: KM12 colon
UACC-62 melanoma = system: UACC-62 melanoma
SNB-19 CNS = system: SNB-19 CNS
SK-MEL-5 melanoma = system: SK-MEL-5 melanoma
OVCAR-8 ovarian = system: OVCAR-8 ovarian
SNB-75 CNS = system: SNB-75 CNS
SK-OV-3 ovarian = system: SK-OV-3 ovarian
EKVX NSCLC = system: EKVX NSCLC
UACC-257 melanoma = system: UACC-257 melanoma
COLO 205 colon = system: COLO 205 colon
MDA-MB-468 breast = system: MDA-MB-468 breast
MDA-MB-435 melanoma = system: MDA-MB-435 melanoma
HCT-15 colon = system: HCT-15 colon
K-562 leukemia = system: K-562 leukemia
HOP-92 NSCLC = system: HOP-92 NSCLC
OVCAR-3 ovarian = system: OVCAR-3 ovarian
SW-620 colon = system: SW-620 colon
UO-31 renal = system: UO-31 renal
CAKI-1 renal = system: CAKI-1 renal
RPMI-8226 leukemia = system: RPMI-8226 leukemia
MDA-MB-231 breast = system: MDA-MB-231 breast
NCI-H460 NSCLC = system: NCI-H460 NSCLC
SN12C renal = system: SN12C renal
NCI-H322M lung = system: NCI-H322M lung
MALME-3M melanoma = system: MALME-3M melanoma
A549 NSCLC = system: A549 NSCLC

**Q.** `CNC(=O)c1c(F)cccc1Nc1nc(Nc2cc3c(cc2OC)CCN3C(=O)CN(C)C)nc2[nH]ccc12` was tested. Which GI50 (U251 glioblastoma) did it give?
**A.** 1900 nM

**Q.** What about the TGI (U251 glioblastoma) of the same compound?
**A.** 3350 nM

**Q.** And the GI50 (HT29 colon)?
**A.** 181 nM

**Q.** What about the TGI (HT29 colon) of the same compound?
**A.** 1870 nM

**Q.** What about the GI50 (HCC-2998 colon) of the same compound?
**A.** 1410 nM

**Q.** What about the TGI (HCC-2998 colon) of the same compound?
**A.** 2760 nM

**Q.** What about the GI50 (ACHN renal) of the same compound?
**A.** 1740 nM

**Q.** And the TGI (ACHN renal)?
**A.** 3170 nM

**Q.** And the GI50 (HS 578T breast)?
**A.** 1780 nM

**Q.** What about the TGI (HS 578T breast) of the same compound?
**A.** 3190 nM

**Q.** And the GI50 (M14 melanoma)?
**A.** 1510 nM

**Q.** What about the TGI (M14 melanoma) of the same compound?
**A.** 2840 nM

**Q.** And the GI50 (SF-539 CNS)?
**A.** 1800 nM

**Q.** And the TGI (SF-539 CNS)?
**A.** 3200 nM

**Q.** What about the GI50 (TK-10 renal) of the same compound?
**A.** 1860 nM

**Q.** What about the TGI (TK-10 renal) of the same compound?
**A.** 3540 nM

**Q.** And the GI50 (SK-MEL-28 melanoma)?
**A.** 1870 nM

**Q.** And the TGI (SK-MEL-28 melanoma)?
**A.** 3270 nM

**Q.** And the GI50 ([…]-0 renal)?
**A.** 1480 nM

**Q.** What about the TGI (786-0 renal) of the same compound?
**A.** 2840 nM

**Q.** And the GI50 (DU-145 prostate)?
**A.** 1820 nM

**Q.** And the TGI (DU-145 prostate)?
**A.** 3600 nM

**Q.** And the GI50 (NCI/ADR-RES ovarian)?
**A.** 2230 nM

**Q.** And the TGI (NCI/ADR-RES ovarian)?
**A.** 4980 nM

**Q.** What about the GI50 (A498 renal) of the same compound?
**A.** 1820 nM

**Q.** And the TGI (A498 renal)?
**A.** 3220 nM

**Q.** What about the GI50 (CCRF-CEM leukemia) of the same compound?
**A.** 387 nM

**Q.** What about the TGI (CCRF-CEM leukemia) of the same compound?
**A.** 1220 nM

**Q.** And the GI50 (IGROV1 ovarian)?
**A.** 1760 nM

**Q.** And the TGI (IGROV1 ovarian)?
**A.** 3270 nM

**Q.** And the GI50 (BT-549 breast)?
**A.** 1660 nM

**Q.** And the TGI (BT-549 breast)?
**A.** 3040 nM

**Q.** What about the GI50 (PC-3 prostate) of the same compound?
**A.** 2190 nM

**Q.** And the TGI (PC-3 prostate)?
**A.** 4450 nM

**Q.** What about the GI50 (NCI-H23 lung) of the same compound?
**A.** 1330 nM

**Q.** And the TGI (NCI-H23 lung)?
**A.** 2750 nM

**Q.** What about the GI50 (MCF7 breast) of the same compound?
**A.** 210 nM

**Q.** What about the TGI (MCF7 breast) of the same compound?
**A.** 1720 nM

**Q.** What about the GI50 (OVCAR-5 ovarian) of the same compound?
**A.** 1480 nM

**Q.** What about the TGI (OVCAR-5 ovarian) of the same compound?
**A.** 3240 nM

**Q.** And the GI50 (T-47D breast)?
**A.** 1940 nM

**Q.** And the TGI (T-47D breast)?
**A.** 3380 nM

**Q.** What about the GI50 (HCT-116 colon) of the same compound?
**A.** 1440 nM

**Q.** What about the TGI (HCT-116 colon) of the same compound?
**A.** 2790 nM

**Q.** What about the GI50 (LOX IMVI melanoma) of the same compound?
**A.** 1610 nM

**Q.** What about the TGI (LOX IMVI melanoma) of the same compound?
**A.** 2970 nM

**Q.** And the GI50 (OVCAR-4 ovarian)?
**A.** 1990 nM

**Q.** And the TGI (OVCAR-4 ovarian)?
**A.** 3500 nM

**Q.** What about the GI50 (MOLT-4 leukemia) of the same compound?
**A.** 968 nM

**Q.** What about the TGI (MOLT-4 leukemia) of the same compound?
**A.** 2140 nM

**Q.** And the GI50 (RXF 393 renal)?
**A.** 1720 nM

**Q.** What about the TGI (RXF 393 renal) of the same compound?
**A.** 3110 nM

**Q.** What about the GI50 (HL-60(TB) leukemia) of the same compound?
**A.** 71.1 nM

**Q.** And the TGI (HL-60(TB) leukemia)?
**A.** 944 nM

**Q.** What about the GI50 (SF-268 CNS) of the same compound?
**A.** 1300 nM

**Q.** What about the TGI (SF-268 CNS) of the same compound?
**A.** 2610 nM

**Q.** What about the GI50 (SF-295 CNS) of the same compound?
**A.** 1870 nM

**Q.** And the TGI (SF-295 CNS)?
**A.** 3290 nM

**Q.** And the GI50 (NCI-H226 lung)?
**A.** 1740 nM

**Q.** And the TGI (NCI-H226 lung)?
**A.** 3740 nM

**Q.** And the GI50 (NCI-H522 lung)?
**A.** 1910 nM

**Q.** What about the TGI (NCI-H522 lung) of the same compound?
**A.** 3330 nM

**Q.** What about the GI50 (HOP-62 NSCLC) of the same compound?
**A.** 1830 nM

**Q.** And the TGI (HOP-62 NSCLC)?
**A.** 3390 nM

**Q.** And the GI50 (KM12 colon)?
**A.** 1440 nM

**Q.** And the TGI (KM12 colon)?
**A.** 2770 nM

**Q.** And the GI50 (UACC-62 melanoma)?
**A.** 1560 nM

**Q.** What about the TGI (UACC-62 melanoma) of the same compound?
**A.** 2910 nM

**Q.** And the GI50 (SNB-19 CNS)?
**A.** 2350 nM

**Q.** And the TGI (SNB-19 CNS)?
**A.** 4810 nM

**Q.** What about the GI50 (SK-MEL-5 melanoma) of the same compound?
**A.** 1220 nM

**Q.** What about the TGI (SK-MEL-5 melanoma) of the same compound?
**A.** 2480 nM

**Q.** What about the GI50 (OVCAR-8 ovarian) of the same compound?
**A.** 1710 nM

**Q.** And the TGI (OVCAR-8 ovarian)?
**A.** 3120 nM

**Q.** And the GI50 (SNB-75 CNS)?
**A.** 2000 nM

**Q.** What about the TGI (SNB-75 CNS) of the same compound?
**A.** 3460 nM

**Q.** And the GI50 (SK-OV-3 ovarian)?
**A.** 1970 nM

**Q.** What about the TGI (SK-OV-3 ovarian) of the same compound?
**A.** 3450 nM

**Q.** And the GI50 (EKVX NSCLC)?
**A.** 1600 nM

**Q.** And the TGI (EKVX NSCLC)?
**A.** 3090 nM

**Q.** And the GI50 (UACC-257 melanoma)?
**A.** 1720 nM

**Q.** And the TGI (UACC-257 melanoma)?
**A.** 3110 nM

**Q.** What about the GI50 (COLO 205 colon) of the same compound?
**A.** 152 nM

**Q.** And the TGI (COLO 205 colon)?
**A.** 1230 nM

**Q.** And the GI50 (MDA-MB-468 breast)?
**A.** 1560 nM

**Q.** And the TGI (MDA-MB-468 breast)?
**A.** 2920 nM

**Q.** What about the GI50 (MDA-MB-435 melanoma) of the same compound?
**A.** 1510 nM

**Q.** What about the TGI (MDA-MB-435 melanoma) of the same compound?
**A.** 2860 nM

**Q.** What about the GI50 (HCT-15 colon) of the same compound?
**A.** 1250 nM

**Q.** What about the TGI (HCT-15 colon) of the same compound?
**A.** 2610 nM

**Q.** What about the GI50 (K-562 leukemia) of the same compound?
**A.** 1750 nM

**Q.** What about the TGI (K-562 leukemia) of the same compound?
**A.** 3140 nM

**Q.** And the GI50 (HOP-92 NSCLC)?
**A.** 1150 nM

**Q.** And the TGI (HOP-92 NSCLC)?
**A.** 2420 nM

**Q.** And the GI50 (OVCAR-3 ovarian)?
**A.** 1800 nM

**Q.** And the TGI (OVCAR-3 ovarian)?
**A.** 3250 nM

**Q.** What about the GI50 (SW-620 colon) of the same compound?
**A.** 1180 nM

**Q.** What about the TGI (SW-620 colon) of the same compound?
**A.** 2440 nM

**Q.** And the GI50 (UO-31 renal)?
**A.** 1840 nM

**Q.** What about the TGI (UO-31 renal) of the same compound?
**A.** 3290 nM

**Q.** And the GI50 (CAKI-1 renal)?
**A.** 1820 nM

**Q.** And the TGI (CAKI-1 renal)?
**A.** 3240 nM

**Q.** And the GI50 (RPMI-8226 leukemia)?
**A.** 1140 nM

**Q.** And the TGI (RPMI-8226 leukemia)?
**A.** 2370 nM

**Q.** And the GI50 (MDA-MB-231 breast)?
**A.** 1590 nM

**Q.** What about the TGI (MDA-MB-231 breast) of the same compound?
**A.** 2980 nM

**Q.** What about the GI50 (NCI-H460 NSCLC) of the same compound?
**A.** 1240 nM

**Q.** And the TGI (NCI-H460 NSCLC)?
**A.** 2530 nM

**Q.** What about the GI50 (SN12C renal) of the same compound?
**A.** 2050 nM

**Q.** And the TGI (SN12C renal)?
**A.** 3500 nM

**Q.** And the GI50 (NCI-H322M lung)?
**A.** 1580 nM

**Q.** And the TGI (NCI-H322M lung)?
**A.** 3180 nM

**Q.** And the GI50 (MALME-3M melanoma)?
**A.** 1250 nM

**Q.** And the TGI (MALME-3M melanoma)?
**A.** 2510 nM

**Q.** What about the GI50 (A549 NSCLC) of the same compound?
**A.** 1410 nM

**Q.** And the TGI (A549 NSCLC)?
**A.** 2760 nM
